Drawing on PubChem BioAssay (NCI), this text covers TGI and GI50 for 14 molecules.

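Following 48 hours of exposure in 96-well plates, responses at five concentrations were used to interpolate endpoints linearly. Here, GI50 denotes the concentration required for 50% inhibition of growth. TGI marks complete inhibition of growth.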

Test systems include COLO 205 colon; EKVX NSCLC; HCC-2998 colon; K-562 leukemia; LOX IMVI melanoma; M14 melanoma; MOLT-4 leukemia; NCI-H460 lung; NCI/ADR-RES ovarian; OVCAR-8 ovarian; RPMI-8226 leukemia; SF-268 CNS; SF-295 CNS; SF-539 CNS; SK-MEL-28 melanoma; UACC-257 melanoma; UACC-62 melanoma; SN12C renal.
Test in all cases: NCI anticancer screen, dose series, 48 h

Consider `O=C1C(Cl)=C(Nc2ccc(S(=O)(=O)O)cc2)C(=O)c2ccccc21`, for which the TGI with COLO 205 colon is 75.6 µM; in the test with EKVX NSCLC it was 52.5 µM; in the test with HCC-2998 colon, greater than 100 µM; with K-562 leukemia, 94.2 µM; with LOX IMVI melanoma, 80 µM; in the test on M14 melanoma, 47.1 µM. Also, the TGI with MOLT-4 leukemia is greater than 100 µM; with NCI-H460 lung, greater than 100 µM; in the test with NCI/ADR-RES ovarian it was greater than 100 µM; in the test on OVCAR-8 ovarian, 90.6 µM; with RPMI-8226 leukemia, 70.1 µM; with SF-268 CNS it was greater than 100 µM. Moreover, the TGI in the test on SF-295 CNS is 82.5 µM; with SF-539 CNS it was 57.9 µM; with SK-MEL-28 melanoma it was 83.2 µM; in the test on UACC-257 melanoma, greater than 100 µM; in the test on UACC-62 melanoma, greater than 100 µM.
Consider `CCCc1c(-c2ccccc2)[nH]c2ccccc2c1=O`, for which the TGI with COLO 205 colon is greater than 100 µM; in the test with EKVX NSCLC, greater than 100 µM; in the test with HCC-2998 colon, 65.4 µM; in the test on K-562 leukemia, greater than 100 µM; in the test with LOX IMVI melanoma, 43.5 µM; with M14 melanoma, greater than 100 µM. The TGI in the test on MOLT-4 leukemia, in the test on NCI-H460 lung, with RPMI-8226 leukemia, in the test with SF-268 CNS, with SF-295 CNS and with SF-539 CNS was greater than 100 µM in each case. For the same molecule, the TGI in the test on SK-MEL-28 melanoma, with SN12C renal, in the test with UACC-257 melanoma and with UACC-62 melanoma was greater than 100 µM throughout.
On to `O=C1OC2(CC1C1(O)C3CC4CC(C3)CC1C4)C1CC3CC(C1)CC2C3` (configuration not stated), for which the TGI in the test on K-562 leukemia, in the test on LOX IMVI melanoma, with M14 melanoma, in the test on MOLT-4 leukemia, in the test with NCI-H460 lung and in the test with OVCAR-8 ovarian was greater than 100 µM each time. In addition, the TGI with SF-268 CNS is greater than 100 µM; with SF-295 CNS, 73.1 µM; in the test with SF-539 CNS, greater than 100 µM; in the test with SK-MEL-28 melanoma it was greater than 100 µM; with SN12C renal, greater than 100 µM; in the test on UACC-257 melanoma, greater than 100 µM. The same molecule returned a TGI in the test on UACC-62 melanoma greater than 100 µM.
In the case of `Cn1c(=O)c2[nH]c(CCNC(=O)c3ccccc3)nc2n(C)c1=O`, the TGI with EKVX NSCLC, with HCC-2998 colon, in the test with K-562 leukemia, in the test with LOX IMVI melanoma, in the test on M14 melanoma and in the test on MOLT-4 leukemia was greater than 100 µM each time. The TGI with NCI-H460 lung, in the test with NCI/ADR-RES ovarian, in the test on OVCAR-8 ovarian, in the test on SF-268 CNS, with SF-295 CNS and in the test with SK-MEL-28 melanoma was greater than 100 µM throughout. In addition, the TGI in the test on SN12C renal, in the test with UACC-257 melanoma and in the test with UACC-62 melanoma was greater than 100 µM each time.
Take `N#C[C@H](OC1OC(COC2OC(CO)C(O)C(O)C2O)C(O)C(O)C1O)c1ccccc1` (some centres not stated): the TGI in the test with COLO 205 colon is greater than 250 µM; in the test on EKVX NSCLC it was greater than 250 µM; with HCC-2998 colon, greater than 250 µM; in the test with K-562 leukemia, greater than 250 µM; in the test on LOX IMVI melanoma, greater than 250 µM; in the test on MOLT-4 leukemia, greater than 141 µM. The TGI in the test on NCI-H460 lung, with NCI/ADR-RES ovarian, in the test with OVCAR-8 ovarian, with RPMI-8226 leukemia, with SF-268 CNS and with SF-295 CNS was greater than 250 µM in each case. Also, the TGI with SF-539 CNS, in the test with SK-MEL-28 melanoma, in the test with SN12C renal, with UACC-257 melanoma and in the test with UACC-62 melanoma was greater than 250 µM each time. The GI50 in the test with MOLT-4 leukemia was greater than 141 µM.
On to `O=C(Nc1nc2ccc([N+](=O)[O-])cc2s1)C(=O)C(C(=O)c1ccccc1F)C1OC(=O)c2ccccc21` (configuration not stated), for which the TGI with COLO 205 colon was 62.4 µM; in the test on EKVX NSCLC it was 73.4 µM; in the test with HCC-2998 colon, 84.2 µM; in the test with K-562 leukemia, greater than 100 µM; in the test with LOX IMVI melanoma, greater than 100 µM; in the test on M14 melanoma, greater than 100 µM. For the same molecule, the TGI was greater than 100 µM with MOLT-4 leukemia; greater than 100 µM in the test on NCI-H460 lung; greater than 100 µM in the test on OVCAR-8 ovarian; 70.6 µM in the test with RPMI-8226 leukemia; greater than 100 µM in the test on SF-268 CNS; greater than 100 µM with SF-295 CNS. Also, the TGI with SF-539 CNS was 48.3 µM; in the test with SK-MEL-28 melanoma, greater than 100 µM; in the test with SN12C renal it was greater than 100 µM; in the test with UACC-257 melanoma it was greater than 100 µM; in the test with UACC-62 melanoma, greater than 100 µM.
Regarding `C[N+](C)(C)CCc1ccccc1`, the TGI in the test with COLO 205 colon, with EKVX NSCLC, in the test with HCC-2998 colon, in the test on K-562 leukemia, with LOX IMVI melanoma and in the test with M14 melanoma was greater than 100 µM in each case. The TGI in the test with MOLT-4 leukemia, with NCI-H460 lung, in the test with OVCAR-8 ovarian, with RPMI-8226 leukemia, in the test on SF-268 CNS and in the test with SF-295 CNS was greater than 100 µM each time. The TGI in the test on SF-539 CNS, in the test on SK-MEL-28 melanoma, in the test with SN12C renal, with UACC-257 melanoma and in the test with UACC-62 melanoma was greater than 100 µM each time.
With `CC(=O)Oc1cc2c(cc1OC(C)=O)OCC(c1ccccc1)C2` (configuration not stated), the TGI in the test on COLO 205 colon turned out to be 47 µM; with EKVX NSCLC it was 57.8 µM; in the test with HCC-2998 colon, 65.5 µM; in the test with K-562 leukemia it was 80.1 µM; with LOX IMVI melanoma, 46 µM; in the test with MOLT-4 leukemia, 26.1 µM. The TGI with NCI-H460 lung was determined as 57.9 µM; in the test with NCI/ADR-RES ovarian, 134 µM; in the test with OVCAR-8 ovarian, 73.5 µM; in the test on RPMI-8226 leukemia, 54.5 µM; in the test with SF-268 CNS, 52.2 µM; in the test on SF-295 CNS, 49.8 µM. Moreover, the TGI with SF-539 CNS is 48.7 µM; with SK-MEL-28 melanoma it was 53.1 µM; in the test with SN12C renal it was 56.6 µM; in the test on UACC-257 melanoma, 29.2 µM; with UACC-62 melanoma, 53.3 µM.
For the molecule `Nc1ccn(C2C=C(CO)C(O)C2O)c(=O)c1` (configuration not stated), the TGI with COLO 205 colon, in the test with HCC-2998 colon, in the test on LOX IMVI melanoma, in the test on NCI-H460 lung, with NCI/ADR-RES ovarian and with OVCAR-8 ovarian was greater than 625 µM in each case. Moreover, the TGI in the test on RPMI-8226 leukemia, in the test with SF-268 CNS, with SF-295 CNS, in the test on SF-539 CNS, in the test with SN12C renal and in the test on UACC-62 melanoma was greater than 625 µM each time.
For `CCCNC(=O)C(C)C1CCC2(C)C=CC(=O)C(C)=C2C1O` (configuration not stated), the TGI in the test on COLO 205 colon, with EKVX NSCLC, with HCC-2998 colon, in the test on K-562 leukemia, in the test on LOX IMVI melanoma and in the test on MOLT-4 leukemia was greater than 100 µM each time. In addition, the TGI in the test with NCI-H460 lung, with NCI/ADR-RES ovarian, with OVCAR-8 ovarian, with RPMI-8226 leukemia, in the test with SF-268 CNS and in the test with SF-295 CNS was greater than 100 µM each time. In addition, the TGI with SF-539 CNS, in the test on SK-MEL-28 melanoma, with SN12C renal, with UACC-257 melanoma and in the test on UACC-62 melanoma was greater than 100 µM each time.
In the case of `O=C(O)c1cc2c(ncc3c(=O)n(-c4ccccc4)[nH]c32)s1`, the TGI with COLO 205 colon, in the test with EKVX NSCLC, with HCC-2998 colon, in the test on K-562 leukemia, with LOX IMVI melanoma and in the test with M14 melanoma was greater than 100 µM throughout. Besides, the TGI with MOLT-4 leukemia, with NCI-H460 lung, in the test on OVCAR-8 ovarian, in the test on RPMI-8226 leukemia, in the test on SF-268 CNS and in the test on SF-539 CNS was greater than 100 µM in each case. In addition, the TGI in the test with SK-MEL-28 melanoma, with SN12C renal and in the test with UACC-62 melanoma was greater than 100 µM in each case.
With `OCCNCCN1CCN(CCCN2c3ccccc3Sc3ccc(C(F)(F)F)cc32)CC1`, the TGI with COLO 205 colon is 32.4 µM; in the test with EKVX NSCLC, 52.3 µM; in the test with HCC-2998 colon, 44.7 µM; in the test with LOX IMVI melanoma, 28.5 µM; with M14 melanoma, 30.2 µM; with MOLT-4 leukemia, greater than 100 µM. The TGI was 44.7 µM in the test with NCI-H460 lung; 54.6 µM with NCI/ADR-RES ovarian; 31.9 µM in the test with OVCAR-8 ovarian; greater than 100 µM with RPMI-8226 leukemia; 44 µM with SF-268 CNS; 34.9 µM in the test on SF-295 CNS. Also, the TGI with SF-539 CNS came out at 34.5 µM; with SK-MEL-28 melanoma, 39.5 µM; with SN12C renal, 33.9 µM; in the test with UACC-257 melanoma it was 34.6 µM; in the test with UACC-62 melanoma, 41.2 µM.
Turning to `O=C(CCl)NNC1=Nc2ccc(Cl)cc2SC1`, the TGI with COLO 205 colon is 3.47 µM; in the test on EKVX NSCLC, 4.08 µM; in the test with HCC-2998 colon it was 9.97 µM; with K-562 leukemia it was 5.34 µM; with LOX IMVI melanoma, 2.48 µM; in the test on MOLT-4 leukemia, 2.86 µM. Moreover, the TGI with NCI-H460 lung is 20.4 µM; in the test on NCI/ADR-RES ovarian, 3.79 µM; with OVCAR-8 ovarian, 2.02 µM; in the test on RPMI-8226 leukemia, 5.01 µM; in the test with SF-268 CNS it was 3.92 µM; in the test on SF-295 CNS, 28.4 µM. Besides, the TGI in the test with SF-539 CNS turned out to be 3.77 µM; in the test with SK-MEL-28 melanoma it was 3.92 µM; in the test on SN12C renal, 4.07 µM; in the test with UACC-257 melanoma, 7.53 µM; in the test with UACC-62 melanoma it was 5.46 µM.
Consider `Cc1ccc(C2OC(COCc3ccc(Cl)cc3)C(OCc3ccc(Cl)cc3)C2O)cc1` (configuration not stated), for which the TGI in the test on COLO 205 colon is greater than 100 µM; in the test on EKVX NSCLC it was 40 µM; in the test on HCC-2998 colon, 72.7 µM; in the test on K-562 leukemia it was greater than 100 µM; in the test on MOLT-4 leukemia, greater than 100 µM; with NCI-H460 lung, 14.9 µM. The TGI with OVCAR-8 ovarian was 36.9 µM; in the test on RPMI-8226 leukemia it was 81.2 µM; in the test on SF-295 CNS, 32 µM; in the test with SF-539 CNS, 36.2 µM; in the test on SK-MEL-28 melanoma it was greater than 100 µM; in the test with SN12C renal, 13.1 µM. The values for the TGI in the test on UACC-257 melanoma and in the test with UACC-62 melanoma were 43.1 µM and 18.7 µM, respectively.
